# Results from patent US5250695A, “Use of specific counteranions to modify the solubility of tetrazolium salts” (Miles Inc., priority 1992, dated 1993).
# Legend:
# [1] = Solubility testing of tetrazolium salts in methanol and water (Table I); conditions: for solubility in methanol (in words) / solubility in water (in words): discussion of Table I
# [2] = Impregnation of zwitterionic nylon fabric with tetrazolium salt and ATP; HPLC of methanol extract, extraction into aqueous impregnation solution (Example II); conditions: 1 liter remaining after aqueous ATP impregnation
# Excerpt: The solution also contained some formazan which was not quantified.
# 4 L×0.08 moles/L=0.32 moles of tetrazolium salt impregnated into the membrane during first treatment.
# 1 L×0.006 moles/L=0.006 moles extracted during aqueous impregnation.
# [3] = cited from earlier work
# [4] = listed as DCT tetrafluoroborate
Structure (SMILES),"Solubility, Water [1] [m mol L]","Solubility, Methanol [1] [m mol L]",other results
"O=[N+]([O-])c1ccc(-n2nc(-c3ccccc3)n[n+]2-c2ccc(I)cc2)cc1 [INT Cl^-, 2-(4-iodophenyl)-3-(4-nitrophenyl)-5-phenyl tetrazolium, reference compound]",3,,
"COc1ccccc1-[n+]1nc(-c2ccc3c(c2)OCO3)nn1-c1nc(C(F)F)c(Cl)s1 [DCMT MeSO3^-, 2-(4-difluoromethyl-5-chlorothiazol-2-yl)-3-(2 methoxyphenyl)-5-(3,4-methylenedioxyphenyl) tetrazolium]",248,> 760,solubility in methanol (in words) [1]: greatly enhanced; solubility in water (in words) [1]: greatly enhanced
"COc1ccc(-c2nn(-c3nc4c(cc(OC)c5ccccc54)s3)[n+](-c3cc(OC)c(OC)c(OC)c3)n2)cc1 [MTM MeSO3^-, 2-(5-methoxynaphtho[1,2-d]thiazol-2-yl)-3-(3,4,5-trimethoxyphenyl)-5-(4-methoxyphenyl) tetrazolium]",,48,solubility in methanol (in words) ([1]; listed as MTM methanesulfonate): substantially increased
"COc1ccccc1-[n+]1nc(-c2ccc3c(c2)OCO3)nn1-c1nc(C(F)F)c(Cl)s1 [DCMT BF4^-, 2-(4-difluoromethyl-5-chlorothiazol-2-yl)-3-(2 methoxyphenyl)-5-(3,4-methylenedioxyphenyl) tetrazolium]",2.7,12.9,
"COc1ccc(-c2nn(-c3nc4c(cc(OC)c5ccccc54)s3)[n+](-c3cc(OC)c(OC)c(OC)c3)n2)cc1 [MTM PrSO3^-, 2-(5-methoxynaphtho[1,2-d]thiazol-2-yl)-3-(3,4,5-trimethoxyphenyl)-5-(4-methoxyphenyl) tetrazolium]",,100,solubility in methanol (in words) ([1]; listed as MTM propanesulfonate): substantially increased
"O=[N+]([O-])c1ccc(-n2nc(-c3ccccc3)n[n+]2-c2ccc(I)cc2)cc1 [INT MeSO3^-, 2-(4-iodophenyl)-3-(4-nitrophenyl)-5-phenyl tetrazolium]",35,,
"COc1ccccc1-[n+]1nc(-c2ccc3c(c2)OCO3)nn1-c1nc(C(F)F)c(Cl)s1 [DCMT BuSO3^-, 2-(4-difluoromethyl-5-chlorothiazol-2-yl)-3-(2 methoxyphenyl)-5-(3,4-methylenedioxyphenyl) tetrazolium]",15,> 700,
"COc1cc(-[n+]2nc(-c3ccc4c(c3)OCO4)nn2-c2nc(C(F)F)c(Cl)s2)cc(OC)c1OC [DCT MeSO3^-, 2-(4-difluoromethyl-5-chlorothiazol-2-yl)-3-(3,4,5-trimethoxyphenyl)-5-(3,4-methylenedioxyphenyl) tetrazolium]",73,> 500,solubility in methanol (in words) ([1]; listed as DCT methanesulfonate): highly soluble; solubility in water (in words) ([1]; listed as DCT methanesulfonate): highly soluble
"COc1cc(-[n+]2nc(-c3ccc4c(c3)OCO4)nn2-c2nc(C(F)F)c(Cl)s2)cc(OC)c1OC [DCT NO3^-, 2-(4-difluoromethyl-5-chlorothiazol-2-yl)-3-(3,4,5-trimethoxyphenyl)-5-(3,4-methylenedioxyphenyl) tetrazolium]",2,22,solubility in methanol (in words) ([1]; listed as DCT nitrate): only marginally soluble; solubility in water (in words) ([1]; listed as DCT nitrate): only marginally soluble
"COc1ccc(-c2nn(-c3nc4c(cc(OC)c5ccccc54)s3)[n+](-c3cc(OC)c(OC)c(OC)c3)n2)cc1 [MTM BzSO3, 2-(5-methoxynaphtho[1,2-d]thiazol-2-yl)-3-(3,4,5-trimethoxyphenyl)-5-(4-methoxyphenyl) tetrazolium]",,19,solubility in methanol (in words) ([1]; listed as MTM benzenesulfonate): substantially greater than the nitrate
"COc1cc(-[n+]2nc(-c3ccc4c(c3)OCO4)nn2-c2nc(C(F)F)c(Cl)s2)cc(OC)c1OC [DCT Br^-, 2-(4-difluoromethyl-5-chlorothiazol-2-yl)-3-(3,4,5-trimethoxyphenyl)-5-(3,4-methylenedioxyphenyl) tetrazolium]",< 1,10,solubility in methanol (in words) ([1]; listed as DCT bromide): only marginally soluble; solubility in water (in words) ([1]; listed as DCT bromide): only marginally soluble
"COc1ccc(-c2nn(-c3nc4c(cc(OC)c5ccccc54)s3)[n+](-c3cc(OC)c(OC)c(OC)c3)n2)cc1 [MTM NO3^-, 2-(5-methoxynaphtho[1,2-d]thiazol-2-yl)-3-(3,4,5-trimethoxyphenyl)-5-(4-methoxyphenyl) tetrazolium]",,7.6,
"COc1cc(-[n+]2nc(-c3ccc4c(c3)OCO4)nn2-c2nc(C(F)F)c(Cl)s2)cc(OC)c1OC [DCT BzSO3^-, 2-(4-difluoromethyl-5-chlorothiazol-2-yl)-3-(3,4,5 trimethoxyphenyl)-(5-(3,4-methylenedioxyphenyl)tetrazolium benzenesulfonate]",,> 550,tetrazolium salt extracted from the treated membrane into remaining aqueous solution [2]: 3 mM; solubility in methanol (in words) ([1]; listed as DCT benzenesulfonate): high methanol solubility
"COc1cc(-[n+]2nc(-c3ccc4c(c3)OCO4)nn2-c2nc(C(F)F)c(Cl)s2)cc(OC)c1OC [DCT BF4^-, 2-(4-difluoromethyl-5-chlorothiazol-2-yl)-3-(3,4,5-trimethoxyphenyl)-5-(3,4-methylenedioxyphenyl) tetrazolium]",< 0.5,< 16,"solubility in methanol (in words) [1, 4]: only marginally soluble; solubility in water (in words) [1, 4]: only marginally soluble"
"COc1cc(-[n+]2nc(-c3ccc4c(c3)OCO4)nn2-c2nc(C(F)F)c(Cl)s2)cc(OC)c1OC [DCT PrSO3^-, 2-(4-difluoromethyl-5-chlorothiazol-2-yl)-3-(3,4,5-trimethoxyphenyl)-5-(3,4-methylenedioxyphenyl) tetrazolium]",16,> 650,
"COc1ccccc1-[n+]1nc(-c2ccc3c(c2)OCO3)nn1-c1nc(C(F)F)c(Cl)s1 [DCMT PeSO3^-, 2-(4-difluoromethyl-5-chlorothiazol-2-yl)-3-(2 methoxyphenyl)-5-(3,4-methylenedioxyphenyl) tetrazolium]",2.6,> 700,
"COc1ccccc1-[n+]1nc(-c2ccc3c(c2)OCO3)nn1-c1nc(C(F)F)c(Cl)s1 [DCMT PrSO3^-, 2-(4-difluoromethyl-5-chlorothiazol-2-yl)-3-(2 methoxyphenyl)-5-(3,4-methylenedioxyphenyl) tetrazolium]",23,> 760,
"COc1ccccc1-[n+]1nc(-c2ccc3c(c2)OCO3)nn1-c1nc(C(F)F)c(Cl)s1 [DCMT Br^-, 2-(4-difluoromethyl-5-chlorothiazol-2-yl)-3-(2 methoxyphenyl)-5-(3,4-methylenedioxyphenyl) tetrazolium]",< 1,24,
"CN1CC[C@]23c4c5ccc(OCc6ccccc6)c4O[C@H]2[C@@H](O)C=C[C@H]3[C@H]1C5 [benzylmorphine, reference compound]",,,"water solubility after conversion to alkyl sulphonic acid salt ([3]; U.S. Pat. No. 1,892,019, methane or ethanesulfonic acid): increased water solubility"
"COc1cc(-[n+]2nc(-c3ccc4c(c3)OCO4)nn2-c2nc(C(F)F)c(Cl)s2)cc(OC)c1OC [DCT EtSO3^-, 2-(4-difluoromethyl-5-chlorothiazol-2-yl)-3-(3,4,5-trimethoxyphenyl)-5-(3,4-methylenedioxyphenyl) tetrazolium]",26,> 600,
C=C1CC(C)C2C3Cc4ccc(O)cc4C2(CCN3CC2CCC2)C1 (stereo not drawn) [17-cyclobutylmethyl-3-hydroxy-862-methyl-6-methylene morphinane],,,"solubility on converting chloride salt to methanesulfonate ([3]; U.S. Pat. No. 4,334,071): enhancement of the solubility"
